Results taken from US20250134379A1, “Methods for Localization of Cancerous Tissue Using Fluorescent Molecular Imaging Agent for Diagnosis or Treatment” (Vergent Bioscience, Inc., priority 2023, published 2025).

Legend:
cancerous tissue = assay: Preclinical / animal model studies of duration of VGT-309 fluorescence in tissue; assay type: in vivo
Description: There are several molecular imaging agents that are currently in various stages of development and testing, but of these agents VGT-309 is particularly advantageous. VGT-309 targets and covalently binds to cathepsin targets, which are present in larger amounts in solid tumors and tumor margins than in normal tissues. When this binding occurs, the quencher is cleaved from the molecule and VGT-309 becomes “active” at which point the tumor will fluoresce under near-infrared (NIR) light.

tumor [1] = assay: Phase 2 study of VGT-309 in Australia: clinically significant events (CSEs) during tumor removal; assay type: in vivo, human; details: Phase 2 study in Australia
Description: CSEs are one way to measure whether an imaging agent, such as VGT-309, adds a clinical benefit to the diagnosis and treatment process. In this context, CSEs generally fall into one of three categories: (1) localization of hard-to-find tumors, (2) identification of positive resection margins, and (3) identification of additional primary and metastatic lesions that were not previously detected using existing technologies. […] In a Phase 2 study of VGT-309 in Australia, one third of patients experienced a […]

tumor [2] = assay: Intraoperative NIR imaging of patients given VGT-309 before surgery; assay type: in vivo, human; details: patient
Description: A patient appeared to have a localized tumor, as identified by the preoperative scans, but the surgeon identified lymph node spread during resection with VGT-309. […] Absent from these scans were any evidence of spread to other areas of the lungs or the lymph nodes. […] […] The surgeon also visually examined and biopsied the proximal lymph nodes, neither of which indicated the tumor had spread. […] The surgeon was therefore able to perform a biopsy, which confirmed that the cancer had spread, and as a result re-staged the patient in real-time and performed a radical lymph node dissection. At the end of the procedure, the surgeon removed all traces of the cancer.
However, it was confirmed under NIR that this abnormal lung tissue was in fact cancerous.

Structure (SMILES): CC1(C)C(/C=C/C2=C(Cl)C(=C/C=C3/N(CCCCCC(=O)NCCNC(=O)c4c(F)c(F)c(OCC(=O)[C@H](CCCCNC(=O)CCCCCN5/C(=C/C=C/C=C/C=C\C6=[N+](CCCCS(=O)(=O)O)c7ccc8ccccc8c7C6(C)C)C(C)(C)c6c5ccc5ccccc65)NC(=O)[C@H](Cc5ccccc5)NC(=O)OCc5ccccc5)c(F)c4F)c4ccc5cc(S(=O)(=O)O)ccc5c4C3(C)C)/CCC2)=[N+](CCCS(=O)(=O)O)c2ccc(N(CCCS(=O)(=O)O)CCCS(=O)(=O)O)cc21 [VGT-309]
- time following administration out to which VGT-309 may continue to emit a signal in tissue (cancerous tissue; animal model studies suggest): seven days
- time after administration at which VGT-309 can fluoresce cancerous tissue (cancerous tissue; based on preclinical studies): two hours to four days
- fraction of patients who experienced a clinically significant event (CSE) (tumor [1]): one third
- detection of lymph node spread under NIR (tumor [2]; Example 2, 0.16 mg/kg, approximately 21 hours prior to surgery, biopsy confirmed that the cancer had spread): unexpected fluorescence in a more distant lymph node
- identification of metastatic spread / additional tumors under NIR (tumor [2]; Example 3, 0.32 mg/kg, approximately 18.5 hours prior to surgery): identify additional tumors using NIR
